Broadly, the Ki is a dissociation constant, usually derived from enzyme kinetics or from competition with a known ligand.

T1 sequence (P33535 whole entry): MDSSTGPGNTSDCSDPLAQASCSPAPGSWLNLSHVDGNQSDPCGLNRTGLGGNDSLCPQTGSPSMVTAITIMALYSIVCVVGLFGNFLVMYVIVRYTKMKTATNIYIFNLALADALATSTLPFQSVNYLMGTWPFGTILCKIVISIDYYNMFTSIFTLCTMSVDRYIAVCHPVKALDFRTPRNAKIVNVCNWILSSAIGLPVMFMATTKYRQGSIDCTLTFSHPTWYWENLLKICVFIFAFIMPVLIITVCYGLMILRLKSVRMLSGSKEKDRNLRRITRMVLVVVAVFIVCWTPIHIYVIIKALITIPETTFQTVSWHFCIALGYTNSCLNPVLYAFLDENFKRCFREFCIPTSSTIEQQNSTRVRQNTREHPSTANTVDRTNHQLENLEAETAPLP

The first assay concerns the target T1, μ-opioid receptor (Rattus norvegicus, UniProt P33535).
T1 construct: the forebrains are homogenized in Tris buffer in a Teflon®-glass homogenizer; from tissue; host or cells: forebrain of male Wistar rats (particulate membrane preparation)
The experiment in a line: Rat brain μ-opioid receptor binding assay ([3H]DAMGO). The following applies: 10 nM solutions of the compounds, read-out: MOR binding Ki. How it is done:
Rat Brain μ-Opioid Receptor Binding Assay
Male, Wistar rats (150-250 g, VAF, Charles River, Kingston, N.Y.) are killed by cervical dislocation and their brains removed and placed immediately in ice cold Tris HCl buffer (50 mM, pH 7.4). The forebrains are separated from the remainder of the brain by a coronal transection, beginning dorsally at the colliculi and passing ventrally through the midbrain-pontine junction. After dissection, the forebrains are homogenized in Tris buffer in a Teflon®-glass homogenizer. The homogenate is diluted to a concentration of 1 g of forebrain tissue per 100 mL Tris buffer and centrifuged at 39,000×G for 10 min. The pellet is resuspended in the same volume of Tris buffer with several brief pulses from a Polytron homogenizer. This particulate preparation is used for the μ-opioid binding assays. […] The tubes and filters are rinsed three times with 4 mL of 10 mM HEPES (pH 7.4) and the radioactivity associated with the filter circles determined using Formula 989 scintillation fluid (New England Nuclear, Boston, Mass.) in a scintillation counter.
The data are used to calculate either the % inhibition compared to control binding (when only a single concentration of test compound is evaluated) or a Ki value (when a range of concentrations is tested).
% Inhibition is calculated as follows: [formula]
Ki value is calculated using the LIGAND (Munson, P. J. and Rodbard, D., Anal. Biochem. 107: 220-239, 1980) data analysis program.
Regarding `CCNC(=O)c1ccc(C=C2CC3CCC(C2)N3Cc2ccc3ccccc3n2)cc1` [Cpd 35], the Ki came to 532 nM.
Still for that read-out and setting: under `CCNC(=O)c1ccc(C=C2CC3CCC(C2)N3Cc2ccoc2)cc1` [Cpd 36] stands 109 nM; under `CCNC(=O)c1ccc(C=C2CC3CCC(C2)N3Cc2sccc2C)cc1` [Cpd 38], 236 nM; under `CCNC(=O)c1ccc(C(Br)=C2CC3CCC(C2)N3Cc2c[nH]cn2)cc1` [Cpd 39], 83.7 nM.
Same read-out and setting: to `CCN(CC)C(=O)c1ccc(C=C2CC3CCC(C2)N3Cc2ccsc2)cc1` [Cpd 52] belongs 6490 nM; to `CCCCN1C2CCC1CC(=Cc1ccc(C(=O)NCC)cc1)C2` [Cpd 53], 262 nM.
On the same count and under the same terms, under `CCNC(=O)c1ccc(C=C2CC3CCC(C2)N3Cc2ccncc2)cc1` [Cpd 58] stands 1180 nM.
As for `CCNC(=O)c1ccc(C=C2CC3CCC(C2)N3Cc2cccs2)cc1` [Cpd 61], the Ki stood at 71.2 nM.
On the same count and under the same terms, to `CCNC(=O)c1ccc(C=C2CC3CCC(C2)N3CCc2ccccc2)cc1` [Cpd 62] belongs 8.56 nM.
Same read-out and setting: to `CCNC(=O)c1ccc(C=C2CC3CCC(C2)N3Cc2ccc(Cl)s2)cc1` [Cpd 77] belongs 356 nM; to `CCNC(=O)c1ccc(C=C2CC3CCC(C2)N3Cc2sc3ccccc3c2C)cc1` [Cpd 78], 271 nM; to `CCNC(=O)c1ccc(C=C2CC3CCC(C2)N3CCc2ccccc2O)cc1` [Cpd 86], 19.3 nM.
The same measure, in the same setting: under `CCNC(=O)c1ccc(C(=C2CC3CCC(C2)N3Cc2ccc(C(=O)O)o2)c2cccc(C(=O)O)c2)cc1` [Cpd 87] stands 815 nM.

The same assay, now with this note: MOR binding Ki.
On to `CCNC(=O)c1ccc(C=C2CC3CCC(C2)N3Cc2ccsc2)cc1` [Cpd 33], for which the Ki turned out to be 198 nM.
`CCNC(=O)c1ccc(C=C2CC3CCC(C2)N3Cc2ccco2)cc1` [Cpd 34] registered a Ki of 1420 nM.
As for `CCNC(=O)c1ccc(C=C2CC3CCC(C2)N3Cc2[nH]cnc2C)cc1` [Cpd 37], affinity was put at a Ki of 1470 nM.
Same read-out and setting: to `CCNC(=O)c1ccc(C(Br)=C2CC3CCC(C2)N3Cc2cccs2)cc1` [Cpd 40] belongs 8.97 nM.
Same read-out and setting: under `CCNC(=O)c1ccc(C(=C2CC3CCC(C2)N3CC#N)c2ccccc2)cc1` [Cpd 43, 4-[(8-Cyanomethyl-8-aza-bicyclo[3.2.1]oct-3-ylidene)-phenyl-methyl]-N-ethyl-benzamide] stands 721 nM; under `CCNC(=O)c1ccc(C=C2CC3CCC(C2)N3Cc2c[nH]cn2)cc1` [Cpd 46], 5480 nM.
Still for that read-out and setting: under `CCNC(=O)c1ccc(C(=C2CC3CCC(C2)N3CC=C(C)C)c2cccc(C(=O)O)c2)cc1` [Cpd 47, 3{(4-Ethylcarbamoyl-phenyl)-[8-(3-methyl-but-2-enyl)-8-aza-bicyclo[3.2.1]oct-3-ylidene]-methyl}-benzoic acid] stands 125 nM.
`CCN(CC)C(=O)c1ccc(C=C2CC3CCC(C2)N3)cc1` [Cpd 48, 4-(8-Aza-bicyclo[3.2.1]oct-3-ylidenemethyl)-N,N-diethylbenzamide] had a Ki of 25800 nM.
Compound `CCN(CC)C(=O)c1ccc(C(Br)=C2CC3CCC(C2)N3)cc1` [Cpd 49, 4-[(8-Aza-bicyclo[3.2.1]oct-3-ylidene)-bromo-methyl]-N,N-diethylbenzamide] returned a Ki of 100000 nM.
Same read-out and setting: to `CCNC(=O)c1ccc(C=C2CC3CCC(C2)N3CCc2ccccc2)cc1` [Cpd 50, N-Ethyl-4-(8-phenethyl-8-aza-bicyclo[3.2.1]oct-3-ylidenemethyl)-benzamide] belongs 44.3 nM.
Same read-out and setting: under `CCNC(=O)c1ccc(C=C2CC3CCC(C2)N3Cc2ccc3c(c2)OCO3)cc1` [Cpd 54] stands 130 nM.
The same measure, in the same setting: to `CCNC(=O)c1ccc(C=C2CC3CCC(C2)N3CC=C(C)C)cc1` [Cpd 55] belongs 195 nM; to `CCNC(=O)c1ccc(C=C2CC3CCC(C2)N3Cc2ccccn2)cc1` [Cpd 56], 1500 nM.
`CCNC(=O)c1ccc(C=C2CC3CCC(C2)N3Cc2cccnc2)cc1` [Cpd 57] showed a Ki of 1410 nM.
Same read-out and setting: under `CCNC(=O)c1ccc(C=C2CC3CCC(C2)N3CC#Cc2ccccc2)cc1` [Cpd 59] stands 31.6 nM; under `CCNC(=O)c1ccc(C(=C2CC3CCC(C2)N3Cc2cccs2)c2cnc3ccccc3c2)cc1` [Cpd 64], 30.8 nM.
Regarding `CCNC(=O)c1ccc(C(=C2CC3CCC(C2)N3Cc2ccc3c(c2)OCO3)c2cnc3ccccc3c2)cc1` [Cpd 65], the affinity corresponds to a Ki of 42.6 nM.
On the same count and under the same terms, under `CCNC(=O)c1ccc(C(=C2CC3CCC(C2)N3Cc2ccccn2)c2cnc3ccccc3c2)cc1` [Cpd 66] stands 142 nM; under `CCNC(=O)c1ccc(C(=C2CC3CCC(C2)N3CC=C(C)C)c2cccc3cccnc23)cc1` [Cpd 67], 119 nM.
The same measure, in the same setting: under `CCNC(=O)c1ccc(C(=C2CC3CCC(C2)N3Cc2cccs2)c2cccc3cccnc23)cc1` [Cpd 68] stands 155 nM; under `CCNC(=O)c1ccc(C(=C2CC3CCC(C2)N3Cc2ccc3c(c2)OCO3)c2cccc3cccnc23)cc1` [Cpd 69], 133 nM.
`CCNC(=O)c1ccc(C(=C2CC3CCC(C2)N3Cc2ccccn2)c2cccc3cccnc23)cc1` [Cpd 70] came in with a Ki of 41.1 nM.
The same measure, in the same setting: under `CCNC(=O)c1ccc(C(=C2CC3CCC(C2)N3Cc2ccc3ccccc3n2)c2cccnc2)cc1` [Cpd 71] stands 14.6 nM; under `CCNC(=O)c1ccc(C(=C2CC3CCC(C2)N3Cc2ccc3ccccc3n2)c2cccc(NC(C)=O)c2)cc1` [Cpd 72], 11.1 nM; under `CCNC(=O)c1ccc(C(=C2CC3CCC(C2)N3Cc2ccc3ccccc3n2)c2cccc(C(C)=O)c2)cc1` [Cpd 73], 35.9 nM.
On the same count and under the same terms, under `CCNC(=O)c1ccc(C(=C2CC3CCC(C2)N3Cc2csc([N+](=O)[O-])c2)c2cccnc2)cc1` [Cpd 74] stands 37.5 nM.
Still for that read-out and setting: to `CCNC(=O)c1ccc(C(=C2CC3CCC(C2)N3Cc2csc([N+](=O)[O-])c2)c2cccc(C(C)=O)c2)cc1` [Cpd 76] belongs 184 nM.
Consider `CCNC(=O)c1ccc(C(=C2CC3CCC(C2)N3Cc2ccco2)c2cccc(C(=O)O)c2)cc1` [Cpd 80, 3-[(4-Ethylcarbamoyl-phenyl)-(8-furan-2-ylmethyl-8-aza-bicyclo[3.2.1]oct-3-ylidene)-methyl]-benzoic acid], for which the Ki amounted to 119 nM.
On the same count and under the same terms, under `CCNC(=O)c1ccc(C(=C2CC3CCC(C2)N3Cc2ccccn2)c2cccc(C(=O)O)c2)cc1` [Cpd 82] stands 375 nM.
Same read-out and setting: to `CCNC(=O)c1ccc(C(=C2CC3CCC(C2)N3CCc2ccccc2)c2cccc(C(=O)O)c2)cc1` [Cpd 83] belongs 17.2 nM.
The same measure, in the same setting: under `CCNC(=O)c1ccc(C(=C2CC3CCC(C2)N3Cc2ccc(NC(C)=O)cc2)c2cccc(C(=O)O)c2)cc1` [Cpd 84] stands 5660 nM.
`CCNC(=O)c1ccc(C(=C2CC3CCC(C2)N3Cc2ccc3ccccc3n2)c2cccc(C(=O)O)c2)cc1` [Cpd 85] showed a Ki of 537 nM.
The same measure, in the same setting: to `CCN(CC)C(=O)c1ccc(C(Br)=C2CC3CCC(C2)N3CCc2ccccc2)cc1` [Cpd 89, 4-[Bromo-(8-phenethyl-8-azabicyclo[3.2.1]oct-3-ylidene)-methyl]-N,N-diethylbenzamide] belongs 1010 nM.
Still for that read-out and setting: under `CCNC(=O)c1ccc(C(=C2CC3CCC(C2)N3Cc2nnn[nH]2)c2ccccc2)cc1` [Cpd 90, N-Ethyl-4-{phenyl-[8-(1H-tetrazol-5-ylmethyl)-8-aza-bicyclo[3.2.1]oct-3-ylidene]-methyl}-benzamide] stands 406 nM.
